Measurements: ChEMBL document CHEMBL5223107 (Bioorg Med Chem Lett, 2022)

target: T1, Androgen receptor (Homo sapiens, UniProt P10275); experiment: Inhibition of androgen receptor in human LNCaP cells assessed as inhibition of AR transcription activity by dual-luciferase reporter assays; type: cell-based
T1 sequence (P10275 whole entry): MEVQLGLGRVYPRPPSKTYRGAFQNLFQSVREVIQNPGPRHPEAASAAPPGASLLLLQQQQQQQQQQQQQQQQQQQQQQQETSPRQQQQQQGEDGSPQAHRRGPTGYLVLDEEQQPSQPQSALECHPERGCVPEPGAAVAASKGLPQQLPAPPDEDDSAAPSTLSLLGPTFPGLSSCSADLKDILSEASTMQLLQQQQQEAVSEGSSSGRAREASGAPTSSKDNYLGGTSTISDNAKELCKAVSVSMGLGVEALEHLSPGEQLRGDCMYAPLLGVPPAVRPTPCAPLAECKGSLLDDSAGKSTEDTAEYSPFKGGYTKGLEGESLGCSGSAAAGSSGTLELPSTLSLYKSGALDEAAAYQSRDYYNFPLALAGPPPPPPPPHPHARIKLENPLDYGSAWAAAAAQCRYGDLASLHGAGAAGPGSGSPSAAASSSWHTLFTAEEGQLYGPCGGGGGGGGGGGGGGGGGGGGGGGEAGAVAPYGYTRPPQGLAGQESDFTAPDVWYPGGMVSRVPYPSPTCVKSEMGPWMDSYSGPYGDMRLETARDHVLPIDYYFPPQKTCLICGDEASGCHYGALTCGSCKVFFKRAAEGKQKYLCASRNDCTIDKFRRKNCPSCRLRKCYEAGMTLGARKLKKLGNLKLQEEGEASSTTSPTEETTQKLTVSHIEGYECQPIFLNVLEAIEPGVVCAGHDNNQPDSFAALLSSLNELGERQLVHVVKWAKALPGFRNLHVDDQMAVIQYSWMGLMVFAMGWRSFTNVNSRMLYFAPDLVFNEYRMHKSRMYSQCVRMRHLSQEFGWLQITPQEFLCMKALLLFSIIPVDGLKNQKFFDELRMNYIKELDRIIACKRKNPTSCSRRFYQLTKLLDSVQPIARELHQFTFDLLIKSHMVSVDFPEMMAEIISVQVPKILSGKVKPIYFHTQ

Compound | IC50 [µM]
Cc1c(O)c(O)c(C=O)c(COCc2ccccc2)c1-c1ccccc1Cl | > 5
Cc1c(O)c(O)c(C=O)c(COCc2ccccc2F)c1-c1ccc(F)cc1 | > 5
Cc1c(O)c(O)c(C=O)c(COCc2ccccc2)c1-c1cc(C(F)(F)F)cc(C(F)(F)F)c1 | 4.39
CC(C)c1cc(COCc2ccccc2)c(C=O)c(O)c1O | > 5
Cc1c(O)c(O)c(C=O)c(COCc2ccccc2)c1-c1ccc(Cl)cc1Br | > 5
Cc1c(O)c(O)c(C=O)c(COCc2ccccc2)c1-c1ccc(Cl)cc1 | 4.9
Cc1c(O)c(O)c(C=O)c(CO[C@H]2CC[C@@]3(C)C(=CC[C@@H]4[C@@H]3CC[C@]3(C)C(=O)CC[C@@H]43)C2)c1-c1ccccc1 | 3.22
COc1cccc(COCc2c(C=O)c(O)c(O)c(C)c2-c2ccccc2)c1 | > 5
COc1ccc(-c2c(C)c(O)c(O)c(C=O)c2COCc2ccccc2)cc1 | > 5
Cc1c(O)c(O)c(C=O)c(COCc2ccccc2)c1-c1ccccc1C#N | > 5
Cc1c(O)c(O)c(C=O)c(COCc2ccccc2)c1-c1ccc(F)cc1 | > 5
Cc1c(O)c(O)c(C=O)c(COCc2ccccc2)c1-c1ccccc1OC(F)(F)F | > 5
Cc1c(O)c(O)c(C=O)c(COCc2ccccc2)c1-c1ccc(-c2ccccc2)cc1 | > 5
Cc1c(O)c(O)c(C=O)c(COCc2ccc(OC(F)(F)F)cc2)c1-c1ccccc1 | 2.72
Cc1c(O)c(O)c(C=O)c(COCc2ccccc2F)c1-c1ccc(C(F)(F)F)cc1 | 2.52
Cc1c(O)c(O)c(C=O)c(COCc2ccccc2)c1-c1ccc(OC(F)(F)F)cc1 | 4.49
Cc1c(O)c(O)c(C=O)c(COCc2ccccc2)c1-c1cccc2ccccc12 | > 5
Cc1c(O)c(O)c(C=O)c(COCc2ccccc2)c1-c1ccc(Br)cc1 | 3.47
Cc1c(O)c(O)c(C=O)c(COCc2cccc(C(F)(F)F)c2)c1-c1ccccc1 | 3.05
Cc1c(O)c(O)c(C=O)c(COCc2ccccc2)c1-c1ccc(Br)c(F)c1 | 2.19
COc1ccccc1COCc1c(C=O)c(O)c(O)c(C)c1-c1ccccc1 | > 5
Cc1c(C)c(COCc2ccccc2)c(C=O)c(O)c1O | > 5
Cc1c(O)c(O)c(C=O)c(COCc2ccccc2)c1-c1cccc(Br)c1F | > 5
CCc1cc(COCc2ccccc2)c(C=O)c(O)c1O | > 5
CCc1c(O)c(O)c(C=O)c(COCc2ccccc2)c1-c1ccccc1 | > 5

Compound | IC50 [µM]
Cc1ccc(F)cc1-c1c(C)c(O)c(O)c(C=O)c1COCc1ccccc1 | > 5
Cc1c(O)c(O)c(C=O)c(COCc2ccc(F)cc2)c1-c1ccc(F)cc1 | 2.41
CC(C)=CCC/C(C)=C/COCc1cc(C)c(O)c(O)c1C=O | > 5
Cc1c(O)c(O)c(C=O)c(COCc2ccccc2F)c1-c1ccccc1 | > 5
Cc1c(O)c(O)c(C=O)c(COCc2ccccc2)c1-c1ccc(C(F)(F)F)cc1Cl | 3.25
Cc1cc(COCc2ccccc2)c(C=O)c(O)c1O | > 5
C=CCc1c(C)c(O)c(O)c(C=O)c1COCc1ccccc1 | > 5
Cc1c(O)c(O)c(C=O)c(COCc2ccccc2)c1-c1ccc(Br)cc1F | 3.39
COC(=O)c1ccc(-c2c(C)c(O)c(O)c(C=O)c2COCc2ccccc2)cc1 | 4.23
Cc1cccc(COCc2c(C=O)c(O)c(O)c(C)c2-c2ccccc2)c1 | 4.53
COc1ccccc1-c1c(C)c(O)c(O)c(C=O)c1COCc1ccccc1 | > 5
Cc1cc(CO[C@H]2CC[C@@]3(C)C(=CC[C@@H]4[C@@H]3CC[C@]3(C)C(=O)CC[C@@H]43)C2)c(C=O)c(O)c1O | > 5
Cc1ccccc1-c1c(C)c(O)c(O)c(C=O)c1COCc1ccccc1 | > 5
Cc1c(O)c(O)c(C=O)c(COCc2ccccc2C(F)(F)F)c1-c1ccccc1 | 2.54
Cc1c(O)c(O)c(C=O)c(COCc2ccccc2)c1-c1ccc(C(F)(F)F)cc1Br | 4.08
Cc1c(O)c(O)c(C=O)c(COCc2ccccc2)c1-c1ccccc1C(F)(F)F | > 5
Cc1c(O)c(O)c(C=O)c(COCc2ccccc2)c1CO[Si](C)(C)C | > 5
Cc1c(O)c(O)c(C=O)c(COCc2ccccc2)c1-c1ccccc1Br | > 5
COc1ccc(COCc2cc(C)c(O)c(O)c2C=O)cc1 | > 5
Cc1c(O)c(O)c(C=O)c(COCc2ccccc2)c1-c1ccc(Cl)cc1C(F)(F)F | > 5
Cc1c(O)c(O)c(C=O)c(COCc2cccc(F)c2)c1-c1cccc(F)c1 | 2.89
Cc1c(O)c(O)c(C=O)c(COCc2ccccc2)c1-c1ccccc1 | > 5
C=C(C)Cc1c(C)c(O)c(O)c(C=O)c1COCc1ccccc1 | > 5
C=CCc1c(C)c(O)c(O)c(C=O)c1COCc1ccc(OC)cc1 | > 5
Cc1c(O)c(O)c(C=O)c(COCc2ccccc2F)c1-c1cccc(F)c1 | > 5

Compound | IC50 [µM]
Cc1c(O)c(O)c(C=O)c(COCc2cccc(F)c2)c1-c1ccc(C(F)(F)F)cc1 | 2.09
Cc1c(O)c(O)c(C=O)c(COCc2ccc(F)cc2)c1-c1cccc(F)c1 | 2.09
Cc1c(O)c(O)c(C=O)c(COCc2cccc(Cl)c2Cl)c1-c1ccccc1 | 2.81
Cc1c(O)c(O)c(C=O)c(COCc2ccccc2)c1-c1ccc([N+](=O)[O-])cc1 | 3.74
Cc1ccc(COCc2c(C=O)c(O)c(O)c(C)c2-c2ccccc2)cc1 | > 5
Cc1c(O)c(O)c(C=O)c(COCc2ccccc2)c1-c1ccc(F)cc1F | 2.3
Cc1c(O)c(O)c(C=O)c(COCc2cccc(F)c2)c1-c1ccccc1 | 4.05
Cc1c(O)c(O)c(C=O)c2c1[C@@H](c1ccc(C(=O)O[C@H]3CC[C@@]4(C)C(=CC[C@H]5[C@@H]6CC[C@H]([C@H](C)CCCC(C)C)[C@@]6(C)CC[C@@H]54)C3)cc1)CC2 | > 5
Cc1cccc(-c2c(C)c(O)c(O)c(C=O)c2COCc2ccccc2)c1 | > 5
Cc1c(O)c(O)c(C=O)c(COCc2cccc(F)c2)c1-c1ccc(F)cc1 | 2.58
Cc1c(O)c(O)c(C=O)c(COCc2cccc3ccccc23)c1-c1ccccc1 | > 5
Cc1c(O)c(O)c(C=O)c(COCc2ccccc2)c1-c1ccc(F)cc1Cl | > 5
Cc1c(O)c(O)c(C=O)c(COCc2ccccc2C(F)(F)F)c1-c1cccc(F)c1 | > 5
Cc1c(O)c(O)c(C=O)c(COCc2ccccc2)c1-c1ccc(C(C)(C)C)cc1 | 3.51
Cc1c(O)c(O)c(C=O)c2c1C(C#Cc1ccc(Br)cc1)CC2 (stereo not given) | > 5
Cc1c(O)c(O)c(C=O)c(COCc2ccccc2)c1-c1cccs1 | > 5
Cc1c(O)c(O)c(C=O)c(COCc2ccc(C(F)(F)F)cc2)c1-c1ccccc1 | 3.32
Cc1c(O)c(O)c(C=O)c(COCc2ccccc2)c1-c1cc(F)ccc1F | > 5
Cc1c(O)c(O)c(C=O)c(COCc2ccc(F)cc2)c1-c1ccccc1 | 2.38
Cc1c(O)c(O)c(C=O)c(COCc2ccc(F)cc2)c1-c1ccc(C(F)(F)F)cc1 | 2.14
Cc1cc(C)cc(-c2c(C)c(O)c(O)c(C=O)c2COCc2ccccc2)c1 | > 5
Cc1c(O)c(O)c(C=O)c(COCc2ccccc2)c1-c1ccc(C(F)(F)F)cc1 | 1.23
Cc1c(O)c(O)c(C=O)c2c1C1(CC2)c2ccccc2-c2ccccc21 | > 5
Cc1c(O)c(O)c(C=O)c(CSCCC(C)C)c1-c1ccccc1 | > 5
Cc1ccc(-c2c(C)c(O)c(O)c(C=O)c2COCc2ccccc2)cc1 | 3.27
